Assay results taken from patent US8921267B2, “Safening 6-(trisubstituted phenyl)-4-amino-2-pyridinecarboxylate herbicide injury on cereal crops” (Dow AgroSciences LLC, priority 2008, dated 2014).

Experiments:
Type in all cases: in vivo
[1] = test system: barley (Hordeum vulgare L; HORVS); experiment: Postemergence herbicidal safening, greenhouse, visual injury: barley
How it was run: (§1)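 Greenhouse, 18/17 °C, 14 h light; seedlings at 2–3 leaves; Compound 1 salts/ester ± safener in Agri-dex 1.5%, 187 L/ha overhead spray; sub-irrigation; visual % injury at 20-22 d; synergy via Colby.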

[2] = test system: wild pansy (Viola tricolor L; VIOTR); experiment: Postemergence herbicidal activity, greenhouse, visual injury: wild pansy; design: key: visual injury, 0–100%: 0 = no injury, 100 = complete kill; conditions: for VIOTR Ob: applied alone
How it was run: (§2)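 Injury was rated visually on a 0 (none) to 100% (complete kill) scale 20-22 d after treatment, relative to solvent-blank plants. Treatments were two-way safener/herbicide combinations in 1.5% v/v crop oil concentrate, applied overhead at 187 L/ha to plants at the 2nd–3rd true leaf stage. Colby's equation gave expected mixture effects.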

[3] = test system: wheat (Triticum aestivum L; TRZAS); experiment: Postemergence herbicidal safening, greenhouse, visual injury: wheat
How it was run: as §1

[4] = test system: scented mayweed (Matricaria chamomila L; MATCH); experiment: Postemergence herbicidal activity, greenhouse, visual injury: scented mayweed; design: key: % visual injury: 0 = no injury, 100 = complete kill; conditions: for MATCH Ob: applied alone
Procedure: (§3) Evaluation of Postemergence Herbicidal Safening in Cereal Crops
(§4) Seeds of the desired test plant species were planted in Sun Gro MetroMix® 306 planting mixture, which typically has a pH of 6.0 to 6.8 and an organic matter content of about 30 percent, in plastic pots with a surface area of 103.2 square centimeters (cm^2). When required to ensure good germination and healthy plants, a fungicide treatment and/or other chemical or physical treatment was applied. The plants were grown for 7-36 days (d) in a greenhouse with an approximate 14-hour (h) photoperiod which was maintained at about 18° C. during the day and 17° C. during the night. Nutrients and water were added on a regular basis and supplemental lighting was provided with overhead metal halide 1000-Watt lamps as necessary. The plants were employed for testing when they reached the second or third true leaf stage.
(§5) Weighed amounts of esters (methyl) or salts (TEA [triethylammonium], K [potassium]) of 4-amino-3-chloro-6-(4-chloro-2-fluoro-3-methoxyphenyl)pyridine-2-carboxylic acid (Compound 1) were dissolved in a volume of 97:3 volume/volume (v/v) acetone/dimethylsulfoxide (DMSO) to obtain stock solutions. […] The concentrated stock solutions were diluted with an aqueous mixture of 1.5% v/v of Agri-dex crop oil concentrate to provide the appropriate application rates. Compound requirements are based upon a 12 mL application volume at a rate of 187 liters per hectare (L/ha). Stocks solutions of the safeners were prepared following the same procedure. Spray solutions of the safeners and experimental compound mixtures were prepared by adding the stock solutions to the appropriate amount of dilution solution to form a 12 mL spray solution with active ingredients in two-way combinations. Formulated compounds were applied to the plant material with an overhead Mandel track sprayer equipped with 8002E nozzles calibrated to deliver 187 L/ha over an application area of 0.503 square meters (m^2) at a spray height of 18 inches (43 centimeters (cm)) above average plant canopy. Control plants were sprayed in the same manner with the solvent blank.
(§6) The treated plants and control plants were placed in a greenhouse as described above and watered by sub-irrigation to prevent wash-off of the test compounds. After 20-22 d, the condition of the test plants as compared with that of the control plants was determined visually and scored on a scale of 0 to 100 percent where 0 corresponds to no injury and 100 corresponds to complete kill.
(§7) Colby's equation was used to determine the herbicidal effects expected from the mixtures (Colby, S. R. Calculation of the synergistic and antagonistic response of herbicide combinations. Weeds 1967, 15, 20-22.).
(§8) The following equation was used to calculate the expected activity of mixtures containing two active ingredients, A and B: Expected=A+B−(A×B/100)
(§9) A=observed efficacy of active ingredient A at the same concentration as used in the mixture.
(§10) B=observed efficacy of active ingredient B at the same concentration as used in the mixture.

[5] = test system: cleavers (Galium aparine L; GALAP); experiment: Postemergence herbicidal activity, greenhouse, visual injury: cleavers; design: key: visual injury, 0–100%: 0 = no injury, 100 = complete kill; conditions: applied alone
How it was run: as §1

[6] = test system: chickweed (Stellaria media L; STEME); experiment: Postemergence herbicidal activity, greenhouse, visual injury: chickweed; design: key: visual injury, 0–100%: 0 = no injury, 100 = complete kill; conditions: applied alone
How it was run: as §1

[7] = test system: kochia (Kochia scoparia L; KCHSC); experiment: Postemergence herbicidal activity, greenhouse, visual injury: kochia; design: key: % visual injury: 0 = no injury, 100 = complete kill; conditions: applied alone
Procedure: as §3, §4, §5, §6, §7, §8, §9, §10

[8] = test system: bird's-eye speedwell (Veronica persica L; VERPE); experiment: Postemergence herbicidal activity, greenhouse, visual injury: bird's-eye speedwell; design: key: visual injury, 0–100%: 0 = no injury, 100 = complete kill; conditions: applied alone
How it was run: as §1

[9] = test system: wild buckwheat (Polygonum convolvulus L; POLCO); experiment: Postemergence herbicidal activity, greenhouse, visual injury: wild buckwheat; conditions: applied alone
How it was run: as §1

[10] = test system: Russian thistle (Salsola iberica L; SASKR); experiment: Postemergence herbicidal activity, greenhouse, visual injury: Russian thistle; design: key: visual injury, 0–100%: 0 = no injury, 100 = complete kill; conditions: applied alone
How it was run: as §1

[11] = test system: purple deadnettle (Lamium purpureum L; LAMPU); experiment: Postemergence herbicidal activity, greenhouse, visual injury: purple deadnettle; conditions: applied alone
How it was run: as §2

[12] = test system: corn poppy (Papaver rhoeas L; PAPRH); experiment: Postemergence herbicidal activity, greenhouse, visual injury: corn poppy; conditions: applied alone
How it was run: as §2

[13] = Compound 1 K salt 8.75 g/ha alone
[14] = Compound 1 K salt 17.5 g/ha alone
[15] = Compound 1 K salt 35 g/ha alone

COc1c(Cl)ccc(-c2cc(N)c(Cl)c(C(=O)[O-])n2)c1F.[K+] [1 K salt]
HORVS Ob (Observed values) [1, 13]: 1.7
HORVS Ob (Observed values) [1, 14]: 3.3
HORVS Ob (Observed values) [1, 15]: 6.7
VIOTR Ob (Observed values) [2, 13]: 20
VIOTR Ob (Observed values) [2, 14]: 48
VIOTR Ob (Observed values) [2, 15]: 42
TRZAS Ob (Observed values) [3, 13]: 5
TRZAS Ob (Observed values) [3, 14]: 8
TRZAS Ob (Observed values) [3, 15]: 27
MATCH Ob (Observed values) [4, 13]: 50
MATCH Ob (Observed values) [4, 14]: 62
MATCH Ob (Observed values) [4, 15]: 57

Clc1cc(Cl)nc(-c2ccccc2)n1 [Fenclorim]
GALAP Ob ([5]; 17.5 g/ha): 0
GALAP Ob ([5]; 35 g/ha): 0
GALAP Ob ([5]; 70 g/ha): 0
GALAP Ob ([5]; 140 g/ha): 0
VIOTR Ob ([2]; 17.5 g/ha): 0
VIOTR Ob ([2]; 35 g/ha): 0
VIOTR Ob ([2]; 70 g/ha): 0
VIOTR Ob ([2]; 140 g/ha): 0
STEME Ob ([6]; 17.5 g/ha): 0
STEME Ob ([6]; 35 g/ha): 0
STEME Ob ([6]; 70 g/ha): 0
STEME Ob ([6]; 140 g/ha): 0
KCHSC Ob ([7]; 17.5 g/ha): 0
KCHSC Ob ([7]; 35 g/ha): 0
KCHSC Ob ([7]; 70 g/ha): 0
KCHSC Ob ([7]; 140 g/ha): 0
VERPE Ob ([8]; 17.5 g/ha): 0
VERPE Ob ([8]; 35 g/ha): 0
VERPE Ob ([8]; 70 g/ha): 0
VERPE Ob ([8]; 140 g/ha): 0
POLCO Ob ([9]; 17.5 g/ha): 0
POLCO Ob ([9]; 35 g/ha): 0
POLCO Ob ([9]; 70 g/ha): 0
POLCO Ob ([9]; 140 g/ha): 0
MATCH Ob ([4]; 17.5 g/ha): 0
MATCH Ob ([4]; 35 g/ha): 0
MATCH Ob ([4]; 70 g/ha): 0
MATCH Ob ([4]; 140 g/ha): 0
SASKR Ob ([10]; 17.5 g/ha): 0
SASKR Ob ([10]; 35 g/ha): 0
SASKR Ob ([10]; 70 g/ha): 0
SASKR Ob ([10]; 140 g/ha): 0
LAMPU Ob ([11]; 17.5 g/ha): 0
LAMPU Ob ([11]; 35 g/ha): 0
LAMPU Ob ([11]; 70 g/ha): 0
LAMPU Ob ([11]; 140 g/ha): 0
PAPRH Ob ([12]; 17.5 g/ha): 0
PAPRH Ob ([12]; 35 g/ha): 0
PAPRH Ob ([12]; 70 g/ha): 0
PAPRH Ob ([12]; 140 g/ha): 0
